From PMC7313537 (PLoS ONE, 2020)

Columns and labels:
RET = RET (Homo sapiens, UniProt P07949); assay: Enzyme selectivity panel; format: biochemical; conditions: 1 mM ATP
Method: (§2) The kinase assays were carried out at room temperature in HEPES 50 mM, pH 7.0, NaN3 0.02%, BSA 0.01%, Orthovanadate 0.1 mM, DTT 1 mM, MgCl2 10 mM in a final volume of 10 µL. Test compounds were transferred to the plate wells by ECHO liquid handler (Labcyte, San Jose, CA) with 0.5% dimethyl sulfoxide (DMSO) in the final assay. Peptide/kinase mixtures were diluted in the appropriate enzymatic buffer and 5µL of the mixture was added to a 384-well small volume black plate. Reactions were initiated by the addition of 5 µL ATP in reaction buffer, the final reaction mixture consisted of 500 nM peptide substrate, 1 mM ATP, and appropriate amount of specific kinase. […] The plates were then sealed and centrifuged at 1800 rpm for 2 minutes. […] Half maximal inhibitory concentration (IC50) determination was performed by fitting the curve of percent control activity versus the log of the compound concentration using the GraphPad Prism 6.0 software.

PIM1 = target: T1, PIM1 (Homo sapiens, UniProt P11309); assay: Enzyme selectivity panel; format: biochemical; conditions: 1 mM ATP
T1 construct: purchased In-house HTRF panel (56 kinases) and PerkinElmer (161-kinase panel)
Method: as §2

IRAK4 = target: T2, IRAK4 (Homo sapiens, UniProt Q9NWZ3); assay: Broader kinase panel (PerkinElmer); format: biochemical; conditions: 100 nM; read-out: Average Percent Inhibition
T2 construct: purchased In-house HTRF panel (56 kinases) and PerkinElmer (161-kinase panel)
Text: (§1) […]. […] […].

LCK = LCK (Homo sapiens, UniProt P06239); assay: Broader kinase panel (PerkinElmer); format: biochemical; conditions: 100 nM; read-out: Average Percent Inhibition
Text: as §1

PhKg1 = target: T3, PhKg1 (Homo sapiens, UniProt Q16816); assay: Broader kinase panel (PerkinElmer); format: biochemical; conditions: 100 nM; read-out: Average Percent Inhibition
T3 construct: purchased In-house HTRF panel (56 kinases) and PerkinElmer (161-kinase panel)
Text: as §1

EPHA3 = target: T4, EPHA3 (Homo sapiens, UniProt P29320); assay: Broader kinase panel (PerkinElmer); format: biochemical; conditions: 100 nM; read-out: Average Percent Inhibition
T4 construct: purchased In-house HTRF panel (56 kinases) and PerkinElmer (161-kinase panel)
Text: as §1

Mer = target: T5, Mer (Homo sapiens, UniProt Q12866); assay: Broader kinase panel (PerkinElmer); format: biochemical; conditions: 100 nM; read-out: Average Percent Inhibition
T5 construct: purchased In-house HTRF panel (56 kinases) and PerkinElmer (161-kinase panel)
Text: as §1

Ca MK1a = target: T6, Ca MK1a (Homo sapiens, UniProt Q14012); assay: Broader kinase panel (PerkinElmer); format: biochemical; conditions: 100 nM; read-out: Average Percent Inhibition
T6 construct: purchased In-house HTRF panel (56 kinases) and PerkinElmer (161-kinase panel)
Text: as §1

p70S6K = target: T7, p70S6K (Homo sapiens, UniProt P23443); assay: Broader kinase panel (PerkinElmer); format: biochemical; conditions: 100 nM; read-out: Average Percent Inhibition
T7 construct: purchased In-house HTRF panel (56 kinases) and PerkinElmer (161-kinase panel)
Text: as §1

HIPK1 = target: T8, HIPK1 (Homo sapiens, UniProt Q86Z02); assay: Broader kinase panel (PerkinElmer); format: biochemical; conditions: 100 nM; read-out: Average Percent Inhibition
T8 construct: purchased In-house HTRF panel (56 kinases) and PerkinElmer (161-kinase panel)
Text: as §1

GSK3-alpha = target: T9, GSK3-alpha (Homo sapiens, UniProt P49840); assay: Broader kinase panel (PerkinElmer); format: biochemical; conditions: 100 nM; read-out: Average Percent Inhibition
T9 construct: purchased In-house HTRF panel (56 kinases) and PerkinElmer (161-kinase panel)
Text: as §1

PKG1-beta = target: T10, PKG1-beta (Homo sapiens, UniProt Q13976); assay: Broader kinase panel (PerkinElmer); format: biochemical; conditions: 100 nM; read-out: Average Percent Inhibition
T10 construct: purchased In-house HTRF panel (56 kinases) and PerkinElmer (161-kinase panel)
Text: as §1

TXK = target: T11, TXK (Homo sapiens, UniProt P42681); assay: Broader kinase panel (PerkinElmer); format: biochemical; conditions: 100 nM; read-out: Average Percent Inhibition
T11 construct: purchased In-house HTRF panel (56 kinases) and PerkinElmer (161-kinase panel)
Text: as §1

MNK1 (MKNK1) = target: T12, MNK1 (MKNK1) (Homo sapiens, UniProt Q9BUB5); assay: Broader kinase panel (PerkinElmer); format: biochemical; conditions: 100 nM; read-out: Average Percent Inhibition
T12 construct: purchased In-house HTRF panel (56 kinases) and PerkinElmer (161-kinase panel)
Text: as §1

ALK = target: T13, ALK (Homo sapiens, UniProt Q9UM73); assay: Broader kinase panel (PerkinElmer); format: biochemical; conditions: 100 nM; read-out: Average Percent Inhibition
T13 construct: purchased In-house HTRF panel (56 kinases) and PerkinElmer (161-kinase panel)
Text: as §1

MST2 = target: T14, MST2 (Homo sapiens, UniProt Q13188); assay: Broader kinase panel (PerkinElmer); format: biochemical; conditions: 100 nM; read-out: Average Percent Inhibition
T14 construct: purchased In-house HTRF panel (56 kinases) and PerkinElmer (161-kinase panel)
Text: as §1

EPHA8 = target: T15, EPHA8 (Homo sapiens, UniProt P29322); assay: Broader kinase panel (PerkinElmer); format: biochemical; conditions: 100 nM; read-out: Average Percent Inhibition
T15 construct: purchased In-house HTRF panel (56 kinases) and PerkinElmer (161-kinase panel)
Text: as §1

CamK1d = target: T16, CamK1d (Homo sapiens, UniProt Q8IU85); assay: Broader kinase panel (PerkinElmer); format: biochemical; conditions: 100 nM; read-out: Average Percent Inhibition
T16 construct: purchased In-house HTRF panel (56 kinases) and PerkinElmer (161-kinase panel)
Text: as §1

PKD2 = target: T17, PKD2 (Homo sapiens, UniProt Q9BZL6); assay: Broader kinase panel (PerkinElmer); format: biochemical; conditions: 100 nM; read-out: Average Percent Inhibition
T17 construct: purchased In-house HTRF panel (56 kinases) and PerkinElmer (161-kinase panel)
Text: as §1

IGF1R = IGF1R (Homo sapiens, UniProt P08069); assay: Broader kinase panel (PerkinElmer); format: biochemical; conditions: 100 nM; read-out: Average Percent Inhibition
Text: as §1

MST1R = target: T18, MST1R (Homo sapiens, UniProt Q04912); assay: Broader kinase panel (PerkinElmer); format: biochemical; conditions: 100 nM; read-out: Average Percent Inhibition
T18 construct: purchased In-house HTRF panel (56 kinases) and PerkinElmer (161-kinase panel)
Text: as §1

LOK = LOK (Homo sapiens, UniProt O94804); assay: Broader kinase panel (PerkinElmer); format: biochemical; conditions: 100 nM; read-out: Average Percent Inhibition
Text: as §1

CHK2 = target: T19, CHK2 (Homo sapiens, UniProt O96017); assay: Broader kinase panel (PerkinElmer); format: biochemical; conditions: 100 nM; read-out: Average Percent Inhibition
T19 construct: purchased In-house HTRF panel (56 kinases) and PerkinElmer (161-kinase panel)
Text: as §1

KDR = KDR (Homo sapiens, UniProt P35968); assay: Broader kinase panel (PerkinElmer); format: biochemical; conditions: 100 nM; read-out: Average Percent Inhibition
Text: as §1

LYNB = target: T20, LYNB (Homo sapiens, UniProt P07948); assay: Broader kinase panel (PerkinElmer); format: biochemical; conditions: 100 nM; read-out: Average Percent Inhibition
T20 construct: purchased In-house HTRF panel (56 kinases) and PerkinElmer (161-kinase panel)
Text: as §1

BMX = target: T21, BMX (Homo sapiens, UniProt P51813); assay: Broader kinase panel (PerkinElmer); format: biochemical; conditions: 100 nM; read-out: Average Percent Inhibition
T21 construct: purchased In-house HTRF panel (56 kinases) and PerkinElmer (161-kinase panel)
Text: as §1

MARK4 = target: T22, MARK4 (Homo sapiens, UniProt Q96L34); assay: Broader kinase panel (PerkinElmer); format: biochemical; conditions: 100 nM; read-out: Average Percent Inhibition
T22 construct: purchased In-house HTRF panel (56 kinases) and PerkinElmer (161-kinase panel)
Text: as §1

PAK4 = PAK4 (Homo sapiens, UniProt O96013); assay: Broader kinase panel (PerkinElmer); format: biochemical; conditions: 100 nM; read-out: Average Percent Inhibition
Text: as §1

FGR = target: T23, FGR (Homo sapiens, UniProt P09769); assay: Broader kinase panel (PerkinElmer); format: biochemical; conditions: 100 nM; read-out: Average Percent Inhibition
T23 construct: purchased In-house HTRF panel (56 kinases) and PerkinElmer (161-kinase panel)
Text: as §1

EGFR(T790M) = target: T24, EGFR(T790M) (Homo sapiens, UniProt P00533, T790M); assay: Broader kinase panel (PerkinElmer); format: biochemical; conditions: 100 nM; read-out: Average Percent Inhibition
T24 construct: purchased In-house HTRF panel (56 kinases) and PerkinElmer (161-kinase panel)
Text: as §1

PAK3 = target: T25, PAK3 (Homo sapiens, UniProt O75914); assay: Broader kinase panel (PerkinElmer); format: biochemical; conditions: 100 nM; read-out: Average Percent Inhibition
T25 construct: purchased In-house HTRF panel (56 kinases) and PerkinElmer (161-kinase panel)
Text: as §1

AurA = target: T26, AurA (Homo sapiens, UniProt O14965); assay: Broader kinase panel (PerkinElmer); format: biochemical; conditions: 100 nM; read-out: Average Percent Inhibition
T26 construct: purchased In-house HTRF panel (56 kinases) and PerkinElmer (161-kinase panel)
Text: as §1

ROCK1 = ROCK1 (Homo sapiens, UniProt Q13464); assay: Broader kinase panel (PerkinElmer); format: biochemical; conditions: 100 nM; read-out: Average Percent Inhibition
Text: as §1

PKD1 = target: T27, PKD1 (Homo sapiens, UniProt Q15139); assay: Broader kinase panel (PerkinElmer); format: biochemical; conditions: 100 nM; read-out: Average Percent Inhibition
T27 construct: purchased In-house HTRF panel (56 kinases) and PerkinElmer (161-kinase panel)
Text: as §1

TRKC (NTRK3) = target: T28, TRKC (NTRK3) (Homo sapiens, UniProt Q16288); assay: Broader kinase panel (PerkinElmer); format: biochemical; conditions: 100 nM; read-out: Average Percent Inhibition
T28 construct: purchased In-house HTRF panel (56 kinases) and PerkinElmer (161-kinase panel)
Text: as §1

SGK2 = target: T29, SGK2 (Homo sapiens, UniProt Q9HBY8); assay: Enzyme selectivity panel; format: biochemical; conditions: 1 mM ATP
T29 construct: purchased In-house HTRF panel (56 kinases) and PerkinElmer (161-kinase panel)
Method: as §2

[1] = Plasma protein binding (equilibrium dialysis); format: in vitro ADME, cynomolgus monkey; conditions: pH 7.4, monkey plasma, read-out: PPB (% free)
Method: The final DMSO content in all cases was <0.1%. Each condition was incubated in duplicate. For protein binding determination, the Multi-Equilibrium Dialyzer System™ and diachema membranes from Harvard Apparatus (Holliston, MA) were utilized. Equilibrium dialysis was carried out in Teflon cells separated by a dialysis membrane with a molecular weight cutoff of 10,000 Daltons. […] The cells were rotated at a speed of 12 rpm in a 37°C water bath for 2 hours. Following the incubation period, buffer and serum/plasma samples were drained separately into empty preweighed glass test tubes. The tubes were reweighed, and the exact volume of sample recovered from each side of the dialysis cell was calculated using the mass. A 75-μL aliquot of each sample (buffer or serum/plasma) was added to a 96-well plate containing a protein precipitation solution of 100% methanol and 0.2 μM dextrorphan as the internal standard; 75 μL of blank buffer or plasma/serum was added to the plate to ensure identical composition across all samples. Prior to analysis, samples prepared in the 96-well plate were vigorously vortexed for approximately 5 minutes and centrifuged for 10 minutes at ~1700 × g to remove denatured proteins and particulate matter. The supernatant was transferred and analyzed using LC-MS/MS.

T6 sequence (Q14012 whole entry): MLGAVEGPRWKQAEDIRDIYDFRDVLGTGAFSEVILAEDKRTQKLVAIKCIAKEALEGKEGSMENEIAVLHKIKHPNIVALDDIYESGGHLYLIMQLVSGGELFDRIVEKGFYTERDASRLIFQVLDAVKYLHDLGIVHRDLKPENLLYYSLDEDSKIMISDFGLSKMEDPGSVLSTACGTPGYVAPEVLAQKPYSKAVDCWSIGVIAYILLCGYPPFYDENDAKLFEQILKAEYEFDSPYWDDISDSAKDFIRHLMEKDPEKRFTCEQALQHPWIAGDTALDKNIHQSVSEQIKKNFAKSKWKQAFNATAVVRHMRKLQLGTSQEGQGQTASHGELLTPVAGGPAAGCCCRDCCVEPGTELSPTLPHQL
T12 sequence (Q9BUB5 whole entry): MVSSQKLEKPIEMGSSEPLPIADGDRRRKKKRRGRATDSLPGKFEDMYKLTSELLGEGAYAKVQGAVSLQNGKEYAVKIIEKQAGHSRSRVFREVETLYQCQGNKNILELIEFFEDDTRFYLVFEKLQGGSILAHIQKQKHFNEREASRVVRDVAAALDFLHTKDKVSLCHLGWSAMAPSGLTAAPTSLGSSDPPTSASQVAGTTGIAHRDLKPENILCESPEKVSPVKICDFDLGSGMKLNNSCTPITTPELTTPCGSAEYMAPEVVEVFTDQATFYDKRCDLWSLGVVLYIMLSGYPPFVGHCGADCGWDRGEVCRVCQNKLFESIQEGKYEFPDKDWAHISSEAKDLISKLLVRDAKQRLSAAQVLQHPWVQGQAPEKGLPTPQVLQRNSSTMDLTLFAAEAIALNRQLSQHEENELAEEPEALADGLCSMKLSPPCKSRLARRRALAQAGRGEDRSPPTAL
T19 sequence (O96017 whole entry): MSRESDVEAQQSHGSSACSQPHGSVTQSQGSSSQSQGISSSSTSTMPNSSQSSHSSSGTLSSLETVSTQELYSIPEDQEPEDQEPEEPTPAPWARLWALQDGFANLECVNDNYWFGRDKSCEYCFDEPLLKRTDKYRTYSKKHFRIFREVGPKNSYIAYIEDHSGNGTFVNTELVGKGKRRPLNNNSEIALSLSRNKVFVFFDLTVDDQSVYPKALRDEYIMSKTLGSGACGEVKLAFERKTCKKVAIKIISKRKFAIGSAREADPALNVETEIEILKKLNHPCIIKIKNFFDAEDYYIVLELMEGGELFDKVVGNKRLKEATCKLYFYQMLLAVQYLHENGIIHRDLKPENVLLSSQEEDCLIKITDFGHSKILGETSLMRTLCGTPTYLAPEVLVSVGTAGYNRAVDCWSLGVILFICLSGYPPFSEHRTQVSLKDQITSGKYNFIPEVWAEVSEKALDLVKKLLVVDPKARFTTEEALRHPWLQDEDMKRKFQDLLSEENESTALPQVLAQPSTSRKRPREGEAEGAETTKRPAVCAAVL
T8 sequence (Q86Z02 whole entry): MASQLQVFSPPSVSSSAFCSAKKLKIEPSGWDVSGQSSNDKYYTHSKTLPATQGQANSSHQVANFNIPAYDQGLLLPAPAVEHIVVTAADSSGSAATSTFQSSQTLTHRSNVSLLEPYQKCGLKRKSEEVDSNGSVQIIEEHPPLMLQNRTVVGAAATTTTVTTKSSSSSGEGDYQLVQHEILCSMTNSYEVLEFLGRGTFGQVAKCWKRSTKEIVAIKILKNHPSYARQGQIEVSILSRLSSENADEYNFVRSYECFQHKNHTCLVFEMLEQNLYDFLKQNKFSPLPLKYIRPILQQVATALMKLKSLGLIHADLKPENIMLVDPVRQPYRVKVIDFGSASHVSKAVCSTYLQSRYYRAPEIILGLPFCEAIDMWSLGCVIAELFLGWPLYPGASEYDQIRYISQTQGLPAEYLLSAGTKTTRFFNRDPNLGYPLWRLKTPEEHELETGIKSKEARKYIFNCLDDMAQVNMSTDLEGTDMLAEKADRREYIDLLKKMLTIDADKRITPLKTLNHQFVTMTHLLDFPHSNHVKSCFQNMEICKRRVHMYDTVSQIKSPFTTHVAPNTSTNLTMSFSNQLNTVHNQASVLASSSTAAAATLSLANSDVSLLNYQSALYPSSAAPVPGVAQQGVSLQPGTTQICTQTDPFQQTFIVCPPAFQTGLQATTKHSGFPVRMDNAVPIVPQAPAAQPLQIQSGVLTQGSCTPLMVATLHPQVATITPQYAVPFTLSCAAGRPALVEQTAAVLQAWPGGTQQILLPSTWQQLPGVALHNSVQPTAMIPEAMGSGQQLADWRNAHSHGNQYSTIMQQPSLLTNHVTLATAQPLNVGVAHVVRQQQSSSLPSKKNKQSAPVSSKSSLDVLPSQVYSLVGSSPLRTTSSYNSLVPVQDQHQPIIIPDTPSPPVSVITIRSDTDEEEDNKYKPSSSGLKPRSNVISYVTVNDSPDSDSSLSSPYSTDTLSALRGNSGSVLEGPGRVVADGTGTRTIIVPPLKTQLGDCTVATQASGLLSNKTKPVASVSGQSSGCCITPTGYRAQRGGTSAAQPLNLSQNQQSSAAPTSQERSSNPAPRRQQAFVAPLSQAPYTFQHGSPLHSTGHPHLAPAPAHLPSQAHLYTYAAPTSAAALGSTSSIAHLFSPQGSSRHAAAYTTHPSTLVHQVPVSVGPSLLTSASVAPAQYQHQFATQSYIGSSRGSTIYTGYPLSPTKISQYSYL
LCK, sequence (P06239 whole entry, species assumed): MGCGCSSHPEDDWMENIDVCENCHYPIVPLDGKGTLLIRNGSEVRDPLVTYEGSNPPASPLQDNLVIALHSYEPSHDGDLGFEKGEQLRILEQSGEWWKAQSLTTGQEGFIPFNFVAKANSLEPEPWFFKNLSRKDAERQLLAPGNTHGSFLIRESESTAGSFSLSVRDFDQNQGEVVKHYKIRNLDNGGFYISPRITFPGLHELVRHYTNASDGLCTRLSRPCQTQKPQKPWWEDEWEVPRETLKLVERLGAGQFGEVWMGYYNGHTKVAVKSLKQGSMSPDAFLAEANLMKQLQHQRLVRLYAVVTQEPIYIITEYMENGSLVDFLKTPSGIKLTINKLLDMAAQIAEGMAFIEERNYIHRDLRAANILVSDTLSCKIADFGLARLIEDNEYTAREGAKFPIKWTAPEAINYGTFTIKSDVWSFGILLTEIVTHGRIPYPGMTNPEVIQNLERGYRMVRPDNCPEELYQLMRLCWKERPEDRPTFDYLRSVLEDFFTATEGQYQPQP
T2 sequence (Q9NWZ3 whole entry): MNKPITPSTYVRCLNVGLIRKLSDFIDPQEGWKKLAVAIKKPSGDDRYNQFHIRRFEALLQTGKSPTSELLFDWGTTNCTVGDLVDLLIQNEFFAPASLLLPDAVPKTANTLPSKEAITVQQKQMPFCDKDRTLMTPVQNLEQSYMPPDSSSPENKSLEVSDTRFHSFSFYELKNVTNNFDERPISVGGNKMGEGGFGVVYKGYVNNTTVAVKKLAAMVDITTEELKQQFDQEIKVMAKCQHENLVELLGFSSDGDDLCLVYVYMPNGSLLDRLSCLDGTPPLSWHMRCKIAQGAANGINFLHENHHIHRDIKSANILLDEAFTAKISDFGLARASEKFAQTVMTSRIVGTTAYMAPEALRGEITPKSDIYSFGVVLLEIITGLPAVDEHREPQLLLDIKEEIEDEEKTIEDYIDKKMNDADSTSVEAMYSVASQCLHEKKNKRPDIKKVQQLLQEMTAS
LOK, sequence (O94804 whole entry, species assumed): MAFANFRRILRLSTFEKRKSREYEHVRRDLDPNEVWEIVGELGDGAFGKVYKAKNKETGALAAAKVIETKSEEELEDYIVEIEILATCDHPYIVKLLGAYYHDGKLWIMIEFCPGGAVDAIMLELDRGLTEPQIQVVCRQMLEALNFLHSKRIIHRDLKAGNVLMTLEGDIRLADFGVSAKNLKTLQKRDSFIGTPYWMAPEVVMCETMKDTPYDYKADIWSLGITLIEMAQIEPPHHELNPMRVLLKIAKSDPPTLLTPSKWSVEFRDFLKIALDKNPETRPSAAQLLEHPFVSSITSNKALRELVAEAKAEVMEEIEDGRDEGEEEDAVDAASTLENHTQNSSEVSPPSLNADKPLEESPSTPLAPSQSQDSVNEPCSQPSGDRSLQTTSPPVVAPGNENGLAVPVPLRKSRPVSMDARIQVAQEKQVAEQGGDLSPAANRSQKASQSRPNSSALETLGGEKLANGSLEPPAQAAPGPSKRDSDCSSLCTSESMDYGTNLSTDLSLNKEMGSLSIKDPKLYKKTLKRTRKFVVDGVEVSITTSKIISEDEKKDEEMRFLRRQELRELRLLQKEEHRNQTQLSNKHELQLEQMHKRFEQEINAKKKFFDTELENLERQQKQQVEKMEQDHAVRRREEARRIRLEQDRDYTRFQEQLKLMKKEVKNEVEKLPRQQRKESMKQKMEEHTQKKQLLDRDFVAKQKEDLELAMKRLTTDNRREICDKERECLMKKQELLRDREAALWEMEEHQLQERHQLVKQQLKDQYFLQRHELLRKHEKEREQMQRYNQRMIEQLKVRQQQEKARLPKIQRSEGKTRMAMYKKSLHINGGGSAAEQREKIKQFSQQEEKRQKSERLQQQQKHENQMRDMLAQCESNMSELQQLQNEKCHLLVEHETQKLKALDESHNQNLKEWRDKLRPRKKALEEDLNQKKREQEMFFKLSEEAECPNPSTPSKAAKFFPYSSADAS
T1 sequence (P11309 whole entry, species assumed): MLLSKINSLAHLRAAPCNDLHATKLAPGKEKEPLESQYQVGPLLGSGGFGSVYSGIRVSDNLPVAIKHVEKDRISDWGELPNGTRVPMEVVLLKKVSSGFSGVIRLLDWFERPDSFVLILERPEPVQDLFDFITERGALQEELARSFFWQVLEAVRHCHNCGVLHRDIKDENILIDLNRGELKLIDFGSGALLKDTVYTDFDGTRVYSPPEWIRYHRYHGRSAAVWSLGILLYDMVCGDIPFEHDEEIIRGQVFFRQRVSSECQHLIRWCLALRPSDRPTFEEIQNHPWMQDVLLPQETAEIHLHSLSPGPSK

With `CCN1C(=O)N(c2c(F)c(OC)cc(OC)c2F)Cc2cnc3[nH]c(CN4CCOCC4)cc3c21` [INCB054828, pemigatinib] as the molecule, how does the IC50 (RET) read?
The IC50 was > 10 µM.

And the IC50 (PIM1)?
Its IC50 is > 10 µM.

What about the inhibition at 0.1 µM (IRAK4) of the same molecule?
The inhibition at 0.1 µM was 0%.

What about the inhibition at 0.1 µM (LCK) of the same molecule?
The inhibition at 0.1 µM was -2%.

And the inhibition at 0.1 µM (PhKg1)?
Its inhibition at 0.1 µM is -2%.

And the inhibition at 0.1 µM (EPHA3)?
The inhibition at 0.1 µM was 0%.

And the inhibition at 0.1 µM (Mer)?
Its inhibition at 0.1 µM is -1%.

And the inhibition at 0.1 µM (Ca MK1a)?
The inhibition at 0.1 µM was 3%.

And the inhibition at 0.1 µM (p70S6K)?
The inhibition at 0.1 µM was 8%.

And the inhibition at 0.1 µM (HIPK1)?
Its inhibition at 0.1 µM is -1%.

What about the inhibition at 0.1 µM (GSK3-alpha) of the same molecule?
The inhibition at 0.1 µM was 2%.

And the inhibition at 0.1 µM (PKG1-beta)?
The inhibition at 0.1 µM was -2%.

And the inhibition at 0.1 µM (TXK)?
Its inhibition at 0.1 µM is -7%.

And the inhibition at 0.1 µM (MNK1 (MKNK1))?
The inhibition at 0.1 µM was 6%.

And the inhibition at 0.1 µM (ALK)?
The inhibition at 0.1 µM was -1%.

What about the inhibition at 0.1 µM (MST2) of the same molecule?
Its inhibition at 0.1 µM is 3%.

What about the inhibition at 0.1 µM (EPHA8) of the same molecule?
The inhibition at 0.1 µM was -2%.

What about the inhibition at 0.1 µM (CamK1d) of the same molecule?
Its inhibition at 0.1 µM is 14%.

And the inhibition at 0.1 µM (PKD2)?
Its inhibition at 0.1 µM is -7%.

And the inhibition at 0.1 µM (IGF1R)?
Its inhibition at 0.1 µM is 1%.

What about the inhibition at 0.1 µM (MST1R) of the same molecule?
Its inhibition at 0.1 µM is 1%.

What about the inhibition at 0.1 µM (LOK) of the same molecule?
The inhibition at 0.1 µM was -1%.

And the inhibition at 0.1 µM (CHK2)?
The inhibition at 0.1 µM was 4%.

And the inhibition at 0.1 µM (KDR)?
The inhibition at 0.1 µM was 45%.

And the inhibition at 0.1 µM (LYNB)?
Its inhibition at 0.1 µM is 9%.

And the inhibition at 0.1 µM (BMX)?
Its inhibition at 0.1 µM is 3%.

And the inhibition at 0.1 µM (MARK4)?
Its inhibition at 0.1 µM is -4%.

What about the inhibition at 0.1 µM (PAK4) of the same molecule?
Its inhibition at 0.1 µM is 5%.

What about the inhibition at 0.1 µM (FGR) of the same molecule?
The inhibition at 0.1 µM was 3%.

What about the inhibition at 0.1 µM (EGFR(T790M)) of the same molecule?
The inhibition at 0.1 µM was -1%.

What about the inhibition at 0.1 µM (PAK3) of the same molecule?
Its inhibition at 0.1 µM is -2%.

What about the inhibition at 0.1 µM (AurA) of the same molecule?
Its inhibition at 0.1 µM is 6%.

And the inhibition at 0.1 µM (ROCK1)?
The inhibition at 0.1 µM was -3%.

And the inhibition at 0.1 µM (PKD1)?
Its inhibition at 0.1 µM is -3%.

And the inhibition at 0.1 µM (TRKC (NTRK3))?
Its inhibition at 0.1 µM is 3%.

And the IC50 (SGK2)?
Its IC50 is > 10 µM.

And the fraction unbound at 2 h, 1 μM [1]?
The fraction unbound at 2 h, 1 μM was 0.082.
